Source: EP0159194B1, “Iron 3-hydroxypyrone or 3-hydroxypyridone complexes and pharmaceutical compositions containing them” (priority 1984, dated 1985)

Target: apotransferrin (Homo sapiens, UniProt P02787)
Assay: Donation of iron to apotransferrin (59Fe, Sephadex G10 separation)
Format: biochemical
Conditions: 5 x 10^-5M apotransferrin, 1 x 10^-4M iron, pH 7.4
Method: (Maltol)2 (ascorbic acid) iron(III) was prepared in situ by dissolving maltol and ascorbic acid in a 2:1 molar ratio in an aqueous medium containing morpholine propane sulphonate (MOPS, 25 mM) and sodium hydrogen carbonate (30 mM), the pH being adjusted to 7.4 with hydrochloric acid (50% v/v). To the medium was added a solution of ^59Fe enriched ferric chloride in 0.1 M aqueous hydrochloric acid containing a molar amount of iron equivalent to that of the ascorbic acid. Equal volumes of the solution of the iron complex and of apotransferrin in the same aqueous medium were mixed to provide concentrations in the mixture of 5 x 10-^5M of apotransferrin and 1 x 10-^4M of iron.
The mixture was incubated at room temperature in separate experiments for 10 and 60 minutes and an aliquot was then added to a Sephadex G10 column equilibrated with the same aqueous medium described above and the column eluted with that medium, fractions being collected and counted. The percentages of ^59Fe associated with apotransferrin and with ligands are calculated as cpm iron-apotransferrin/total cpm and cpm iron-(maltol)2 (ascorbic acid)/total cpm.

[1] = after 10 minutes at room temperature
[2] = after 60 minutes at room temperature

Chain of apotransferrin (P02787 20-698): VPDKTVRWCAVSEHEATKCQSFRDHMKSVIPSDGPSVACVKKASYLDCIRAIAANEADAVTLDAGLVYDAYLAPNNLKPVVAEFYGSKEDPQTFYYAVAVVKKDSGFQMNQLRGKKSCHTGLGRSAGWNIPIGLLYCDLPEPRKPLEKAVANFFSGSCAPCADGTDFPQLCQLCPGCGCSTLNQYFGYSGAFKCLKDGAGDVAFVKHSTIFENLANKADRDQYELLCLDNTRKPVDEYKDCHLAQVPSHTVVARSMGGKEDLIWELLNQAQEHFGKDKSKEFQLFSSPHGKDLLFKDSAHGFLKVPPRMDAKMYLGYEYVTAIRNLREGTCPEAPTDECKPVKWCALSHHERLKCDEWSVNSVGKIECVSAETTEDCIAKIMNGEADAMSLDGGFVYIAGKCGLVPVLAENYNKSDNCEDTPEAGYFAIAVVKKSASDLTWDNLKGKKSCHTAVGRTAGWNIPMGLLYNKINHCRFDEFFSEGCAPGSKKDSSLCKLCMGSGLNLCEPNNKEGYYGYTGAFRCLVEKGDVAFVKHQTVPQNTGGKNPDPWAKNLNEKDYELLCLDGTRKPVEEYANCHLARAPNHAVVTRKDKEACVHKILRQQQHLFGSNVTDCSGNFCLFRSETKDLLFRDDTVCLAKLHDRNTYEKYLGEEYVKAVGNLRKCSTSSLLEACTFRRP

(maltol)2 (ascorbic acid) iron(III) complex
59Fe associated with apotransferrin [1]: 43% | 59Fe associated with the ligands [1]: 57% | 59Fe donated to the apotransferrin [2]: 75% | 59Fe remaining associated with the ligands [2]: 25%
